Source: US20080293771A1, “AZACYCLYLBENZAMIDE DERIVATIVES AS HISTAMINE-3 ANTAGONISTS” (Wyeth, priority 2007, published 2008)
Structures can show the parent of a compound that is named as a salt.

| SMILES | melting point |
| --- | --- |
| CN(C(=O)c1ccc(Cn2cnc3ccccc32)cc1)C1CCN(C2CCCC2)CC1 (as salt: hydrochloride) [Example 51, 4-(1H-benzimidazol-1-ylmethyl)-N-(1-cyclopentylpiperidin-4-yl)-N-methylbenzamide] | 248 to 250 °C |
| Cc1nc2cc(C#N)ccc2n1-c1ccc(C(=O)N(C)[C@@H]2CCN(C(C)C)C2)cc1 (as salt: hydrochloride) [Example 54, 4-(5-cyano-2-methyl-1H-benzimidazol-1-yl)-N-[(3R)-1-isopropylpyrrolidin-3-yl]-N-methylbenzamide] | 230 to 232 °C |
| Cc1nc2cc(C#N)ccc2n1-c1ccc(C(=O)N(C)[C@@H]2CCN(C3CCC3)C2)cc1 (as salt: hydrochloride) [Example 55, 4-(5-cyano-2-methyl-1H-benzimidazol-1-yl)-N-[(3R)-1-cyclobutylpyrrolidin-3-yl]-N-methylbenzamide] | 240 to 242 °C |
| Cc1nc2cc(C#N)ccc2n1-c1ccc(C(=O)N(C)[C@@H]2CCN(C3CCCC3)C2)cc1 (as salt: hydrochloride) [Example 56, 4-(5-cyano-2-methyl-1H-benzimidazol-1-yl)-N-[(3R)-1-cyclopentylpyrrolidin-3-yl]-N-methylbenzamide] | 185 to 187 °C |
| CC(C)N1CC[C@@H](N(C)C(=O)c2ccc(-n3cc4ccccc4n3)cc2)C1 (as salt: hydrochloride) [Example 61, 4-(2H-indazol-2-yl)-N-[(3R)-1-isopropylpyrrolidin-3-yl]-N-methylbenzamide] | 227 to 228 °C |
| CN(C(=O)c1ccc(-n2cc3ccccc3n2)cc1)[C@@H]1CCN(C2CCC2)C1 (as salt: hydrochloride) [Example 62, N-[(3R)-1-cyclobutylpyrrolidin-3-yl]-4-(2H-indazol-2-yl)-N-methylbenzamide] | 163 to 165 °C |
| CN(C(=O)c1ccc(-n2cc3ccccc3n2)cc1)[C@@H]1CCN(C2CCCC2)C1 (as salt: hydrochloride) [Example 63, N-[(3R)-1-cyclopentylpyrrolidin-3-yl]-4-(2H-indazol-2-yl)-N-methylbenzamide] | 216 to 218 °C |
| CC(C)N1CC[C@@H](N(C)C(=O)c2ccc(-n3ncc4ccccc43)cc2)C1 (as salt: hydrochloride) [Example 64, 4-(1H-indazol-1-yl)-N-[(3R)-1-isopropylpyrrolidin-3-yl]-N-methylbenzamide] | 175 to 177 °C |
| CN(C(=O)c1ccc(-n2ncc3ccccc32)cc1)[C@@H]1CCN(C2CCC2)C1 (as salt: hydrochloride) [Example 65, N-[(3R)-1-cyclobutylpyrrolidin-3-yl]-4-(1H-indazol-1-yl)-N-methylbenzamide] | 163 to 165 °C |
| CN(C(=O)c1ccc(-n2ncc3ccccc32)cc1)[C@@H]1CCN(C2CCCC2)C1 (as salt: hydrochloride) [Example 66, N-[(3R)-1-cyclopentylpyrrolidin-3-yl]-4-(1H-indazol-1-yl)-N-methylbenzamide] | 151 to 152 °C |
| CC(C)N1CCC(N(C)C(=O)c2ccc(-n3cc4ccccc4n3)cc2)CC1 (as salt: hydrochloride) [Example 69, 4-(2H-indazol-2-yl)-N-(1-isopropylpiperidin-4-yl)-N-methylbenzamide] | 166 to 168 °C |
| CN(C(=O)c1ccc(-n2cc3ccccc3n2)cc1)C1CCN(C2CCC2)CC1 (as salt: hydrochloride) [Example 70, N-(1-cyclobutylpiperidin-4-yl)-4-(2H-indazol-2-yl)-N-methylbenzamide] | 273 to 275 °C |
| CN(C(=O)c1ccc(-n2cc3ccccc3n2)cc1)C1CCN(C2CCCC2)CC1 (as salt: hydrochloride) [Example 71, N-(1-cyclopentylpiperidin-4-yl)-4-(2H-indazol-2-yl)-N-methylbenzamide] | 283 to 285 °C |
| CC(C)N1CCC(N(C)C(=O)c2ccc(-n3ncc4ccccc43)cc2)CC1 (as salt: hydrochloride) [Example 72, 4-(1H-indazol-1-yl)-N-(1-isopropylpiperidin-4-yl)-N-methylbenzamide] | 151 to 162 °C |
| CN(C(=O)c1ccc(-n2ncc3ccccc32)cc1)C1CCN(C2CCC2)CC1 (as salt: hydrochloride) [Example 73, N-(1-cyclobutylpiperidin-4-yl)-4-(1H-indazol-1-yl)-N-methylbenzamide] | 160 °C (dec.) |
| CN(C(=O)c1ccc(-n2ncc3ccccc32)cc1)C1CCN(C2CCCC2)CC1 (as salt: hydrochloride) [Example 74, N-(1-cyclopentylpiperidin-4-yl)-4-(1H-indazol-1-yl)-N-methylbenzamide] | 240 °C (dec.) |
| CN(C(=O)c1ccc(Cn2ncc3ccccc32)cc1)[C@@H]1CCNC1 (as salt: hydrochloride) [Example 75, (R)-4-((1H-indazol-1-yl)methyl)-N-methyl-N-(pyrrolidin-3yl)benzamide] | 255 to 256 °C |
| CC(C)N1CC[C@@H](N(C)C(=O)c2ccc(Cn3ncc4ccccc43)cc2)C1 (as salt: hydrochloride) [Example 76, 4-(1H-indazol-1-ylmethyl)-N-[(3R)-1-isopropylpyrrolidin-3-yl]-N-methylbenzamide] | 156 to 158 °C |

| SMILES | melting point |
| --- | --- |
| CN(C(=O)c1ccc(Cn2ncc3ccccc32)cc1)[C@@H]1CCN(C2CCC2)C1 (as salt: hydrochloride) [Example 77, N-[(3R)-1-cyclobutylpyrrolidin-3-yl]-4-(1H-indazol-1-ylmethyl)-N-methylbenzamide] | 105 to 106 °C |
| CN(C(=O)c1ccc(Cn2ncc3ccccc32)cc1)[C@@H]1CCN(C2CCCC2)C1 (as salt: hydrochloride) [Example 78, N-[(3R)-1-cyclopentylpyrrolidin-3-yl]-4-(1H-indazol-1-ylmethyl)-N-methylbenzamide] | 98 to 99 °C |
| CC(C)N1CCC(N(C)C(=O)c2ccc(Cn3ncc4ccccc43)cc2)CC1 (as salt: hydrochloride) [Example 79, 4-(1H-indazol-1-ylmethyl)-N-(1-isopropylpiperidin-4-yl)-N-methylbenzamide] | 197 to 199 °C |
| CN(C(=O)c1ccc(Cn2ncc3ccccc32)cc1)C1CCN(C2CCC2)CC1 (as salt: hydrochloride) [Example 80, N-(1-cyclobutylpiperidin-4-yl)-4-(1H-indazol-1-ylmethyl)-N-methylbenzamide] | 254 to 256 °C |
| CN(C(=O)c1ccc(Cn2ncc3ccccc32)cc1)C1CCN(C2CCCC2)CC1 (as salt: hydrochloride) [Example 81, N-(1-cyclopentylpiperidin-4-yl)-4-(1H-indazol-1-ylmethyl)-N-methylbenzamide] | 265 to 267 °C |
| CC(C)N1CCC(N(C)C(=O)c2ccc(-n3cccn3)cc2)CC1 (as salt: hydrochloride) [Example 85, N-(1-isopropylpiperidin-4-yl)-N-methyl-4-(1H-pyrazol-1-yl)benzamide] | 285 to 286 °C |
| CN(C(=O)c1ccc(-n2cccn2)cc1)C1CCN(C2CCC2)CC1 (as salt: hydrochloride) [Example 86, N-(1-cyclobutylpiperidin-4-yl)-N-methyl-4-(1H-pyrazol-1-yl)benzamide] | 272 to 273 °C |
| CN(C(=O)c1ccc(-n2cccn2)cc1)C1CCN(C2CCCC2)CC1 (as salt: hydrochloride) [Example 87, N-(1-cyclopentylpiperidin-4-yl)-N-methyl-4-(1H-pyrazol-1-yl)benzamide] | 240 °C (dec.) |
| CC(C)N1CCC(N(C)C(=O)c2ccc(Cn3cccn3)cc2)CC1 (as salt: hydrochloride) [Example 91, N-methyl-N-[1-(1-methylethyl)piperidin-4-yl]-4-(1H-pyrazol-1-ylmethyl)benzamide] | 213 to 215 °C |
| CN(C(=O)c1ccc(Cn2cccn2)cc1)C1CCN(C2CCC2)CC1 (as salt: hydrochloride) [Example 92, N-(1-cyclobutylpiperidin-4-yl)-N-methyl-4-(1H-pyrazol-1-ylmethyl)benzamide] | 235 to 237 °C |
| CN(C(=O)c1ccc(Cn2cccn2)cc1)C1CCN(C2CCCC2)CC1 (as salt: hydrochloride) [Example 93, N-(1-cyclopentylpiperidin-4-yl)-N-methyl-4-(1H-pyrazol-1-ylmethyl)benzamide] | 250 °C (dec.) |
| Cc1nc2ccccc2n1-c1ccc(C(=O)N(C)[C@@H]2CCN(C(C)C)C2)cc1F (as salt: hydrochloride) [Example 103, 3-fluoro-N-methyl-4-(2-methyl-1H-benzimidazol-1-yl)-N-[(3R)-1-(1-methylethyl)pyrrolidin-3-yl]benzamide] | 175 to 177 °C |
| Cc1nc2ccccc2n1-c1ccc(C(=O)N(C)[C@@H]2CCN(C3CCC3)C2)cc1F (as salt: hydrochloride) [Example 104, N-[(3R)-1-cyclobutylpyrrolidin-3-yl]-3-fluoro-N-methyl-4-(2-methyl-1H-benzimidazol-1-yl)benzamide] | 164 to 166 °C |
| Cc1nc2ccccc2n1-c1ccc(C(=O)N(C)[C@@H]2CCN(C(C)C)C2)c(Cl)c1 (as salt: hydrochloride) [Example 105, 2-chloro-N-methyl-4-(2-methyl-1H-benzimidazol-1-yl)-N-[(3R)-1-(1-methylethyl)pyrrolidin-3-yl]benzamide] | 204 to 205 °C |
| Cc1nc2ccccc2n1-c1ccc(C(=O)N(C)[C@@H]2CCN(C3CCC3)C2)c(Cl)c1 (as salt: hydrochloride) [Example 106, 2-chloro-N-[(3R)-1-cyclobutylpyrrolidin-3-yl]-N-methyl-4-(2-methyl-1H-benzimidazol-1-yl)benzamide] | 207 to 209 °C |
| Cc1cc(C(=O)N(C)[C@@H]2CCN(C(C)C)C2)ccc1-n1c(C)nc2ccccc21 (as salt: hydrochloride) [Example 107, N,3-dimethyl-4-(2-methyl-1H-benzimidazol-1-yl)-N-[(3R)-1-(1-methylethyl)pyrrolidin-3-yl]benzamide] | 183 to 185 °C |
| Cc1cc(C(=O)N(C)[C@@H]2CCN(C3CCC3)C2)ccc1-n1c(C)nc2ccccc21 (as salt: hydrochloride) [Example 108, N-[(3R)-1-cyclobutylpyrrolidin-3-yl]-N,3-dimethyl-4-(2-methyl-1H-benzimidazol-1-yl)benzamide] | 164 to 166 °C |
